Data set [1] relates to A549 cells. Kind of data set: Two-dose cell viability assay (CellTiter-Glo). The conditions noted are these: A549, 20 μM and 500 nM, 72 h. As to the method:
(§1) The cytotoxicity of fluorosulfation products 1F to 39F and their phenol precursors was assessed in cancer cell lines using a double-dose cell viability test. […] The difference between the cytotoxicity of a fluorosulfation product and that of its phenol precursor reflects the changes in compounds' anti-cancer activity after the SuFEx-based derivatization (FIG. 3, A). […] The corresponding phosphate of combretastatin A4 is a tumor vascular targeting agent, and the water-soluble prodrug of combretastatin A4.
(§2) 6C. Two-Dose Cell Viability Assay to Compare the Cytotoxicities of Fluorosulfation Products (1F to 39F) and Phenol Parents (1 to 39).
(§3) MCF-7 and A549 cancer cells were inoculated into 96-well plates in 100 μL medium at a plating density of 5,000 cells/well. After cell inoculation, the plates were incubated at 37° C. and 5% CO2. After 24 hours, all wells were refreshed with medium containing DMSO (0.2%, as vehicle control), phenols (20 μM or 500 nM) or in situ generated fluorosulfation products (20 μM or 500 nM). Then cancer cells were maintained at 37° C. and 5% CO2 for 72 hours before cell viability (Vcontrol, Vphenol and Vfluorosulfation product) were evaluated by CellTiter-Glo™ Assay following manual of protocol. […] The cytotoxicity difference between a fluorosulfation product and its phenol precursor is quantified as (Vphenol/Vcontrol×100%)−(Vfluorosulfation product/Vcontrol×100%).
For orientation: ATP-based viability assays read luminescence as a measure of living cells.

Data set [2] concerns MCF-7 cells. As to the kind of experiment: Two-dose cell viability assay (CellTiter-Glo). The settings on record: MCF-7, 500 nM, 72 h, in situ generated product. On the procedure:
as §1, §2, §3

Data set [3] has as its system A549 cells. As to the kind of experiment: Cancer cell growth inhibition assay. The class given is cell-based. The conditions noted are these: Homo sapiens, A549, read-out: IC50 A549 Cells. As to the method: (§4) Experimental compounds were dissolved in DMSO at 500-fold of the desired final maximum test concentration. Then it was 10-fold serially diluted to other concentrations in DMSO. All aliquots were frozen prior to use.
(§5) Another same plate of cells was inoculated for the evaluation of time 0. […] And another plate of cancer cells was refreshed with medium containing either DMSO (0.2%, as control) or test compounds (1 or 1F) in seven different concentrations from 20 μM. After incubation for 72 hours, cell viabilities were evaluated by CellTiter-Glo™ assay to obtain Vcontrol and Vtest. The growth inhibition percentage is defined as (Vtest−V0)/(Vcontrol−V0)×100%. IC50 values were obtained from dose-response curves. All tests included 3 repeats.
(§6) Cancer cells were inoculated into a 96-well plate in 100 μL medium at a plating density of 3,000 cells/well. […] Then cells were incubated for 6 days with one change of medium containing test compounds on day 3, before cell viabilities were evaluated by CellTiter-Glo™ Assay to obtain Vcontrol and Vtest. […]
(§7) Another same plate of cells was inoculated for the evaluation of time 0. […] Then the viabilities of cancer cells for time 0 were evaluated by CellTiter-Glo™ assay to obtain V0. […] Then cells were incubation for 72 hours, before cell viabilities were evaluated by CellTiter-Glo™ assay to obtain Vcontrol and Vtest. […]

Data set [4] relates to MCF-7 cells. As to the kind of experiment: Cancer cell growth inhibition assay. The class given is cell-based. The settings on record: Homo sapiens, MCF7, read-out: IC50 MCF-7 Cells. On the procedure: as §4, §5, §6, §7
Another data set deals with HT-29 cells. As to the kind of experiment: Cancer cell growth inhibition assay. It counts as cell-based. As to the method:
as §4, §5
as §5, with “Then the viabilities of cancer cells for time 0 were evaluated by CellTiter-Glo™ assay to obtain V0. Another” for “And another”, “(25” for “(1”, “25F)” for “1F)”, “7 to 9” for “seven”, “μM (2 μM for MCF-7 cells). Then cells were” for “μM. After”, “hours, before” for “hours,”

The test system of a further data set is SKBR3 cells. Kind of data set: Cancer cell growth inhibition assay. It counts as cell-based. The settings on record: Homo sapiens, SK-BR-3, 72 h, read-out: IC50 SKBR3 Cells. As to the method:
as §4, §5
as §5, with “Then the viabilities of cancer cells for time 0 were evaluated by CellTiter-Glo™ assay to obtain V0. Another” for “And another”, “(25” for “(1”, “25F)” for “1F)”, “7 to 9” for “seven”, “μM (2 μM for MCF-7 cells). Then cells were” for “μM. After”, “hours, before” for “hours,”

Data set [5] concerns microtubule network in HT-29 cells. Kind of data set: Immunofluorescence microscopy of HT-29 microtubule disruption. It counts as cell-based. The conditions noted are these: HT-29, 24 h, anti-tubulin-FITC, confocal imaging; 25F 1 μM and 0.1 μM. On the procedure:
To assess the mechanism of fluorosulfate 25F, HT-29 cells were treated with 25F followed by staining with anti-tubulin-FITC antibody. […] In fact, glucuronidation of 25 on the phenol group by uridine 5-diphosphoglucuronosyl transferases (UGTs) has been previously identified as a mechanism of resistance evolved by HT-29 colon cancer cells and hepatocellular cancer cells.
After incubation at 37° C. for 24 hours, cells were treated with media containing DMSO (0.2%), 25 (1 μM, 0.1 μM) or 25F (1 μM, 0.1 μM, 0.01 μM) for 24 hours. Then cells were gently washed in PBS, fixed for 20 min with 4% paraformaldehyde in PBS and permeabilised in 0.5% Triton X-100™ surfactant. Following washes in PBS containing 0.1% Tween™ (PBST) surfactant, cells were blocked in 5% bovine serum albumin diluted in PBST. Then cells were incubated with mouse monoclonal anti-tublin-FITC antibody (DM1A) (1:100 in PBS) for 3 hours. After washing with PBST, cells were incubated with DAPI (1:2000) for 30 min and mounted in PBS for confocal analysis. Images were captured by Nikon™ spinning disk confocal microscopy. All images in each experiment were collected on the same day using identical parameters.

Data set [6] relates to A549, MCF-7, SKBR3 and HT-29 cells. Kind of data set: Cancer cell growth inhibition assay, comparison over the cell line panel. The class given is cell-based. The settings on record: 20 μM and 2 μM, dose-response studies. As to the method:
as §4, §5
as §5, with “Then the viabilities of cancer cells for time 0 were evaluated by CellTiter-Glo™ assay to obtain V0. Another” for “And another”, “(25” for “(1”, “25F)” for “1F)”, “7 to 9” for “seven”, “μM (2 μM for MCF-7 cells). Then cells were” for “μM. After”, “hours, before” for “hours,”

SMILES strings stand for the structures.

The term IC50 denotes the concentration that inhibits the measured activity by half. As for `COc1ccc(/C=C\c2cc(OC)c(OC)c(OC)c2)cc1OS(=O)(=O)F` [25F, (Z)-2-Methoxy-5-(3,4,5-trimethoxystyryl)phenyl sulfurofluoridate], in the data set on A549 cells [1], the “cytotoxicity compared with phenol precursor” value is given as “significantly stronger”. Further, in the data set with MCF-7 cells [2], the “increase of cytotoxicity relative to phenol precursor” value turned out to be 8%. For the same compound, the concentration for half-maximal inhibition (IC50) worked out at 113 nM in the data set on A549 cells [3]; 15.6 nM in the data set with MCF-7 cells [4]; 70 nM in the data set on HT-29 cells (Homo sapiens, HT-29, 72 h, read-out: IC50 HT-29 Cells); 1.8 nM in the data set with SKBR3 cells. For the same compound, the “fold lower IC50 (increase in potency) versus compound 25 on HT-29” value in the data set with HT-29 cells (drug resistant colon cancer cell line HT-29) was 70 fold. Further, the “microtubule structure of treated cells” value in data set [5] is reported as “completely lost microtubule structure”. Moreover, in data set [6], the “activity to inhibit cells at high concentrations compared with parent drug 25” value is given as “stronger activities”.

The values are drawn from US11779548B2, “Arylfluorosulfate compounds and methods” (THE SCRIPPS RESEARCH INSTITUTE, priority 2014, dated 2023).
